Laboratory results taken from ChEMBL document CHEMBL1201862, “PubChem BioAssay data set” (2004).
Activity calls are given as the source filed them.

Key:
[1] = cells; format: functional
[2] = THP-1 cell cytotoxicity, dose response, cytotoxicity control for non-replicating M. tuberculosis project (AID 489025); format: functional
[3] = biological target: T1, Fatty acid synthase (Homo sapiens, UniProt P49327); test: FAS thioesterase domain inhibitors, dose response, biochemical, endpoint fluorescence intensity, uHTS hits (AID 624327); format: functional;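 further: fluorescence from hydrolysis of an O-methyl fluorescein acyl ester substrate by the enzyme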
[4] = biological target: T1, Fatty acid synthase; test: FAS thioesterase domain inhibitors, dose response, biochemical, kinetic fluorescence intensity (AID 624326); format: functional;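 further: rate of fluorescence rise from hydrolysis of a fluorogenic O-methyl fluorescein ester substrate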
[5] = biological target: FAD-linked sulfhydryl oxidase ALR (Homo sapiens, UniProt P55789); test: inhibitors of human ALR sulfhydryl oxidase, dose response, biochemical, H2O2 detection, luminescence, cherry-pick (AID 493248)
[6] = biological target: Voltage-dependent T-type calcium channel subunit alpha-1H (Homo sapiens, UniProt O95180); format: functional;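 further: channel activity triggered by adding a high calcium stimulation buffer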
[7] = tested on: INS1; test: beta cell apoptosis inhibitors, cytokine rescue, dose response, luminescence, retest (AID 449756); format: functional, cell-based; settings: Rattus norvegicus;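 further: cell death triggered by IL-1 beta plus TNF-alpha plus IFN-gamma mixture; protective hits raise ATP signal compared with cytokine alone wells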
[8] = Shn3 3'UTR reporter inhibitors, dose response, cell-based, Clone20 osteoblasts, firefly luciferase, cherry-picked (AID 624132); format: functional;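 further: firefly luciferase luminescence from reporter carrying the Shn3 3'UTR in osteoblasts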
[9] = HepG2 cell cytotoxicity, dose response, cytotoxicity control for Shn3 inhibitor project, CellTiter-Glo, cherry-picked (AID 624134); format: functional, cell-based
[10] = control 3'UTR Renilla luciferase suppression, dose response, counter-screen for Shn3 inhibitor project, cell-based, Clone20-Shn3RL, cherry-picked (AID 624133); format: functional
[11] = NIH-3T3 fibroblast cytotoxicity, dose response, cytotoxicity control, cell-based, fluorescence, Alamar Blue, secondary assay (AID 2327); format: functional;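 further: NIH-3T3 mouse fibroblasts cultured with fluconazole at 8 µg/mL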
[12] = cells; format: functional, cell-based
[13] = cells; format: functional, cell-based; remark: listed apart in the source
[14] = biological target: Nonstructural protein 1 (Influenza A virus, UniProt Q194T2); format: functional, Influenza A virus (A/California/07/2009(H1N1))
[15] = biological target: T2, Polyadenylate-binding protein 1 (Homo sapiens, UniProt P11940); test: PABP1 MLLE–PAM2 interaction inhibitors, dose response, miRNA deadenylation inhibitor project, biochemical, fluorescence polarization, Cy5-PAM2 peptide, secondary (AID 602260); format: functional; settings: read-out: IC50_Mean
[16] = biological target: T2, Polyadenylate-binding protein 1; test: PABP1 MLLE–PAM2 binding inhibitor potency, dose response, biochemical, fluorescence polarization, FITC-PAM2 peptide (AID 602259); format: functional; settings: read-out: IC50_Mean
[17] = biological target: Estrogen receptor beta (Homo sapiens, UniProt Q92731);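 further: recombinant ER-beta bound to coactivator SRC1 peptide in presence of estradiol agonist; inhibitors block coactivator peptide binding and lower the FRET signal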
[18] = biological target: Glyceraldehyde-3-phosphate dehydrogenase (Homo sapiens, UniProt P04406)
[19] = Luminescence Cell-Based Dose Retest to Confirm Inhibitors of Cancer Stem Cells. [Related pubchem assays (depositor defined):AID2717, AID2721]; format: functional; settings: Homo sapiens
[20] = biological target: T3, Protein skinhead-1 (Caenorhabditis elegans, UniProt P34707); format: functional
T3 sequence (P34707 whole entry): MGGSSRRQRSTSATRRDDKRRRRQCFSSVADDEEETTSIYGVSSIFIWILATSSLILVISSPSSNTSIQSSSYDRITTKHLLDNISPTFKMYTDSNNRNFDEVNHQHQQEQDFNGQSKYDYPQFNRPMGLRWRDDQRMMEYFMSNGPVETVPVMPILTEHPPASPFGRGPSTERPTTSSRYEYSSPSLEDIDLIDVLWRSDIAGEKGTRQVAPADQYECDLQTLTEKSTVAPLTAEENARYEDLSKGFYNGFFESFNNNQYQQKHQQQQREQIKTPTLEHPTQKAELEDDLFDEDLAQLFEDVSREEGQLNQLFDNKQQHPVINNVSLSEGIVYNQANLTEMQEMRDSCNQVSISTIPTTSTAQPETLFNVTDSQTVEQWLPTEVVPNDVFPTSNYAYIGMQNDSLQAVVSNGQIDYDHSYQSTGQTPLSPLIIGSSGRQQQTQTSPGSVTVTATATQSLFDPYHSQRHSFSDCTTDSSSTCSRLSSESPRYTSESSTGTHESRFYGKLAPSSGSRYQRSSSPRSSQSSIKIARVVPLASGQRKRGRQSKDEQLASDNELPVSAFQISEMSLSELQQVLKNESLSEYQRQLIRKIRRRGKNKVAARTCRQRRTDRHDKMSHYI

[21] = biological target: Cytochrome P450 3A4 (Homo sapiens, UniProt P08684);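 further: CYP3A4 tested as one member of a cytochrome P450 panel screen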
[22] = biological target: Paired box protein Pax-8 (Homo sapiens, UniProt Q06710); test: inhibitors of PAX8-driven TPO luciferase reporter, dose response, RMG-I cells, cherry-pick (AID 687027); format: functional, cell-based;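 further: luciferase reporter driven by Pax8 target thyroperoxidase promoter measured by SteadyGlo luminescence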
[23] = cytotoxicity toward NIH3T3 fibroblasts, dose response, counter-screen, cell-based, ATP luminescence, mouse fibroblasts (AID 2010); format: functional;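 further: cells exposed to compound for about 90 hours before reading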
[24] = inhibitors of intracellular T. cruzi replication, confirmation, NIH3T3 host cells, beta-gal luminescence (AID 2044); format: functional, cell-based;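 further: intracellular parasites grown in NIH/3T3 mouse fibroblasts as host cells; luminescent beta-galactosidase reporter signal from transgenic T. cruzi replicating inside host cells; inhibitors lower the luminescence signal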

T1 sequence (P49327 whole entry, the tested form may be a part): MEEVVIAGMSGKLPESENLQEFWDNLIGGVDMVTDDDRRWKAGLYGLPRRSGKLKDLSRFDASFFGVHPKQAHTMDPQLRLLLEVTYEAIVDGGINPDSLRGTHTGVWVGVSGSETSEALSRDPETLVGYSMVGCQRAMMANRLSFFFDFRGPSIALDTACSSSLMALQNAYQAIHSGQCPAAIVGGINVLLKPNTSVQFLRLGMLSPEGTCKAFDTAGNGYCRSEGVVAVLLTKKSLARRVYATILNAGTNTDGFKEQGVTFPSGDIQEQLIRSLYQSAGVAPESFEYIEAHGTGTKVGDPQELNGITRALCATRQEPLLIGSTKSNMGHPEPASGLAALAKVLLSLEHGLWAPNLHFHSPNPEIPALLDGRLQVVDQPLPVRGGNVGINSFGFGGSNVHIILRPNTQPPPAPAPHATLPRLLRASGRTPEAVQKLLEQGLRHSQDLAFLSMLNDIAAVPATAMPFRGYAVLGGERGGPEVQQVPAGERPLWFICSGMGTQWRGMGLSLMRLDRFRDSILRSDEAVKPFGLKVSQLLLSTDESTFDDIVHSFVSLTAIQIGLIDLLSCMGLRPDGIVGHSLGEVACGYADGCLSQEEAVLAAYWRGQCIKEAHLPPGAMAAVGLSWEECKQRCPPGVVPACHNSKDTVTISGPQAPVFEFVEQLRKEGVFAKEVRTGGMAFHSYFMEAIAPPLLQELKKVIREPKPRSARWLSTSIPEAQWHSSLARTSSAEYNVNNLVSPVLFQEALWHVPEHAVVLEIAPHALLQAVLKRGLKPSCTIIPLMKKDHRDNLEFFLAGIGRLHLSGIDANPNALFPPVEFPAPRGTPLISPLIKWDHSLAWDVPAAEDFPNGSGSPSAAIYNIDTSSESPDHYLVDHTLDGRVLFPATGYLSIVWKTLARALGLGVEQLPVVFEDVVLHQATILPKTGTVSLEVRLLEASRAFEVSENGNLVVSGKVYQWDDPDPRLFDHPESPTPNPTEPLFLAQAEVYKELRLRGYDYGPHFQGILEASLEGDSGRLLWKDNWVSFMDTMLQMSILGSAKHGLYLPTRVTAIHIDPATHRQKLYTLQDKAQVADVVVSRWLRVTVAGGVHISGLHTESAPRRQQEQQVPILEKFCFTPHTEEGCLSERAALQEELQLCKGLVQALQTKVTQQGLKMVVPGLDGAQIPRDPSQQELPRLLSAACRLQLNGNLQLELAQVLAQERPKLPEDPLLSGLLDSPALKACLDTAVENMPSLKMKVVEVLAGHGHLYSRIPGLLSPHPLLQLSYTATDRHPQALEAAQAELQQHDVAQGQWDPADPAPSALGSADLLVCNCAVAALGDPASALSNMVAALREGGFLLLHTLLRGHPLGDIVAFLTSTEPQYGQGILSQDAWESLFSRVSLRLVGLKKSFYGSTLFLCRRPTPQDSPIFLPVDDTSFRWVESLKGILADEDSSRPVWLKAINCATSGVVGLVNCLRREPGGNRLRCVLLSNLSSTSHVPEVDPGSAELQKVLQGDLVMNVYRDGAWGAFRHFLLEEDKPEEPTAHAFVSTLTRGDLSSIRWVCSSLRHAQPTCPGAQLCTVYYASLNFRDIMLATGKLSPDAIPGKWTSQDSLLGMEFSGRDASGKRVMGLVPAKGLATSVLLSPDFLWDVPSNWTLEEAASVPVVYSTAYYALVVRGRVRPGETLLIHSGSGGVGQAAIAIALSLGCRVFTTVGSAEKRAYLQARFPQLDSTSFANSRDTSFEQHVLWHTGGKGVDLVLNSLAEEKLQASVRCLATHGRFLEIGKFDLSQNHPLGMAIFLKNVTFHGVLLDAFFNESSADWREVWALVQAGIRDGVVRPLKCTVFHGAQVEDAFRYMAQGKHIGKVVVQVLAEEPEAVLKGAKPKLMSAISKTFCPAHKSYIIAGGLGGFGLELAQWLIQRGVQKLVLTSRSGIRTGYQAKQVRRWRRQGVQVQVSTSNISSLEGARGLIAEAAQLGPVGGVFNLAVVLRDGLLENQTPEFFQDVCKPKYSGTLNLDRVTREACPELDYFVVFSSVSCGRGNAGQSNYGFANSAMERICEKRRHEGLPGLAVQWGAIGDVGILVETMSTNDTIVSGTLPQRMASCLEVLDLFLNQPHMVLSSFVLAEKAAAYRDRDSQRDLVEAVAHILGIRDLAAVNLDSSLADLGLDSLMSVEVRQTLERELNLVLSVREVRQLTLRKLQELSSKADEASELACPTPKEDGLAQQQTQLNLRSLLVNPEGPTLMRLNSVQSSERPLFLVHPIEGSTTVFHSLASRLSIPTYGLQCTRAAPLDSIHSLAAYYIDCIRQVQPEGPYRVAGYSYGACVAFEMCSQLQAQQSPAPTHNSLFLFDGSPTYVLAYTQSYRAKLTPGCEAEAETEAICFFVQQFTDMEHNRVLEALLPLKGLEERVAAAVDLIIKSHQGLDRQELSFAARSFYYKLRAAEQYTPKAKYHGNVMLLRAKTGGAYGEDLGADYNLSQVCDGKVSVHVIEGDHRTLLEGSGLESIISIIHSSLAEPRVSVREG
Voltage-dependent T-type calcium channel subunit alpha-1H, sequence (O95180 whole entry): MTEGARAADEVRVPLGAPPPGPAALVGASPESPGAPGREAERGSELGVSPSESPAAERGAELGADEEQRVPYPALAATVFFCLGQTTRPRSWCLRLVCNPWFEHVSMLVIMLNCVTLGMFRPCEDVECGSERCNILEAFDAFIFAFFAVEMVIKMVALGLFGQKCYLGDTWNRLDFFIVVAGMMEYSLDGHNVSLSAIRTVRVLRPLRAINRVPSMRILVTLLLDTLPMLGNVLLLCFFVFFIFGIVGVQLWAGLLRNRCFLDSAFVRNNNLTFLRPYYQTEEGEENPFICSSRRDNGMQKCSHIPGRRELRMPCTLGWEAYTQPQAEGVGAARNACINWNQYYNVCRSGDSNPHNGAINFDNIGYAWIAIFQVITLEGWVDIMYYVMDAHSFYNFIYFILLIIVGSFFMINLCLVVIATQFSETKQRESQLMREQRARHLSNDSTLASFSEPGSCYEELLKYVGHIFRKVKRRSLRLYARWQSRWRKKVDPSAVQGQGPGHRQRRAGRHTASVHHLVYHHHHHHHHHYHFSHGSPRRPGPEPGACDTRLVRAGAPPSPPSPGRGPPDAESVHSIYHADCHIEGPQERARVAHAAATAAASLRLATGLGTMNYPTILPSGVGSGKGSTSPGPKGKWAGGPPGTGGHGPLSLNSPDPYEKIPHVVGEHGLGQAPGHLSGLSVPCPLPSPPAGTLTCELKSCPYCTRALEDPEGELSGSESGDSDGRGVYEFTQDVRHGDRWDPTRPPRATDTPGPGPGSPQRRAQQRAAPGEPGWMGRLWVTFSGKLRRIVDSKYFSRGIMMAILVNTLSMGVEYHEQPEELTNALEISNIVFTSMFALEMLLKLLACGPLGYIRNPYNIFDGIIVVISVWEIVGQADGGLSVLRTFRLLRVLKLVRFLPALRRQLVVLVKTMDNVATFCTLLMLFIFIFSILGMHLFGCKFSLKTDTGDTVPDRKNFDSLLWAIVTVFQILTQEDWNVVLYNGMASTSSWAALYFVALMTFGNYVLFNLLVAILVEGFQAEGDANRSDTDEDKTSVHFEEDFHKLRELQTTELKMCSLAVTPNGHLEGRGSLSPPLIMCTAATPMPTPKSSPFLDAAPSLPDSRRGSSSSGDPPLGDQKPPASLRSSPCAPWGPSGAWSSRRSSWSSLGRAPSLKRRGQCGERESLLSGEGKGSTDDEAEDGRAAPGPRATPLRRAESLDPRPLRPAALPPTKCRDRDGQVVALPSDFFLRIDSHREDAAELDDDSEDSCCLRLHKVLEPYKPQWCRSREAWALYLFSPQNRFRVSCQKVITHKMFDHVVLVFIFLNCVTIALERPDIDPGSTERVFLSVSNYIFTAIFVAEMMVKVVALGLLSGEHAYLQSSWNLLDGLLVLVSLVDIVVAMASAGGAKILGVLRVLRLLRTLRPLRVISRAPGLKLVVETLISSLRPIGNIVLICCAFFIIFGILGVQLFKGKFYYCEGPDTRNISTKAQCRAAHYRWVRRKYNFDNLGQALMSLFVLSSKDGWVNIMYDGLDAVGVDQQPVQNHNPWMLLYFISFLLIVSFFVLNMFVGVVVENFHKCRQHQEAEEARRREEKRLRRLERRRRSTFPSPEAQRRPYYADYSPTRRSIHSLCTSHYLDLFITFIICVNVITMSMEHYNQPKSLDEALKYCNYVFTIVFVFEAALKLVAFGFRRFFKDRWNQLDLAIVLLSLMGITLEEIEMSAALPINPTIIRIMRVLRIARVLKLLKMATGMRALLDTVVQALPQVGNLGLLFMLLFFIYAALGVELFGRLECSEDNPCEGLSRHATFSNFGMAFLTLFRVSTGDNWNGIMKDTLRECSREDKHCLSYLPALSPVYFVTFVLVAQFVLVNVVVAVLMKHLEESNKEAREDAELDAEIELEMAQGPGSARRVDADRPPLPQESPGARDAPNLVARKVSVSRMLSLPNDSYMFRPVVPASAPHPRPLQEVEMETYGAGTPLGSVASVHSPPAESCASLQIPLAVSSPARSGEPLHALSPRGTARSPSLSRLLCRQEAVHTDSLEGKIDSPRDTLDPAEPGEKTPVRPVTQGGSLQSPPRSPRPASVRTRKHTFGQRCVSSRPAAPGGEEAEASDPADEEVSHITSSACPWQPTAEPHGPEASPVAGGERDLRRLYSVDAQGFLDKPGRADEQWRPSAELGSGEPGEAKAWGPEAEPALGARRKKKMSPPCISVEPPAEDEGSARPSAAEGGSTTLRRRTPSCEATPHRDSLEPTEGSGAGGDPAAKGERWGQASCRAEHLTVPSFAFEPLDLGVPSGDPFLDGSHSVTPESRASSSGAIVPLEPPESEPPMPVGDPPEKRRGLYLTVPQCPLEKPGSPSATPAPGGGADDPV
FAD-linked sulfhydryl oxidase ALR, sequence (P55789 whole entry): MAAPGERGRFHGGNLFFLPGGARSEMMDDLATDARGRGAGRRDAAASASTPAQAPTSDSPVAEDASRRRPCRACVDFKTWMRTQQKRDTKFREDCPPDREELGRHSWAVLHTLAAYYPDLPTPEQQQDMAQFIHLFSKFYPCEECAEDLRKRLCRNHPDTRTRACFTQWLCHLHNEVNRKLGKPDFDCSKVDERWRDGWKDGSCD

In the case of `Cc1cccc2cc(C#N)c(NCCCn3ccnc3)nc12`, the IC50 [1] is reported as 43.2 µM (active) and the CC50 [2] is reported as > 40 µM (active).

For `O=C(COC(=O)c1cc([N+](=O)[O-])ccc1N1CCOCC1)Nc1c(Cl)cccc1Cl`, the IC50 [3] was 7.85 µM (active) and the IC50 [4] was 6.21 µM (active).

For `CCN(CC)c1ccc(NC(=O)c2ccc(Br)o2)c(C)c1`, the AC50 [5] was 1.61 µM (active).

With `CC1CCN(C(=O)C2CCN(CCCc3ccccc3)CC2)CC1` the EC50 [6] was 7.69 µM (active).

With `Cc1cc(N2CCCC2=O)cc(C)c1S(=O)(=O)NCCOc1ccc(C(C)(C)C)cc1` the AC50 [7] was 2.58 µM (active), the AC50 [8] was 1.15 µM (active) and the AC50 [9] was 51.4 µM (active). The AC50 [10] was 2.36 µM (active).

With `O=C(Nc1nc2ccccc2[nH]1)c1ccc(F)cc1` the IC50 [1] was 4.33 µM (active) and the CC50 [2] was > 40 µM (active).

In the case of `Cc1ccc(C(=O)NCc2ccco2)cc1S(=O)(=O)Nc1cccc(Cl)c1`, the EC50 [11] is reported as > 150 µM (inactive) and the EC50 [6] is reported as 5.11 µM (active).

With `Nc1nc(-c2ccc3ccccc3c2)cs1` the AC50 [5] was 0.188 µM (active).

For `CCOC(=O)N1CCN(C(=O)c2ccc(Cn3c(=S)[nH]c4cc(OCC)c(OCC)cc4c3=O)cc2)CC1`, the EC50 [12] was > 350 µM (not active) and the EC50 [13] was > 350 µM (not active).

In the case of `O=C1[C@@H]2Cc3c([nH]c4ccccc34)C(c3ccccc3)N2C(=O)CN1C1CCN(Cc2ccccc2)CC1` (some centres undefined), the IC50 [14] is reported as > 100 µM (active).

For `O=C1NC(c2ccccc2)(C(F)(F)F)SC2=CCCCCN12` (centres undefined), the IC50 [15] was > 66 µM (inactive) and the IC50 [16] was > 66 µM (inactive).

For `O=C(CN1C(=O)COc2ccc(Cl)cc21)Nc1ccc2c(c1)OCCO2`, the EC50 [12] was > 350 µM (not active) and the EC50 [13] was > 350 µM (not active).

In the case of `Nc1[nH]c(N=NC(=O)c2ccccc2O)c2ccccc12`, the IC50 [14] is reported as 24.5 µM (active).

With `CCCCC(CC)C(=O)NCc1ccccc1OC` (centres undefined) the IC50 [17] was > 50 µM (not active).

With `CC(C)Oc1ccc(C2CC(=O)N(Nc3ccc([N+](=O)[O-])cc3[N+](=O)[O-])C2=O)cc1` (centres undefined) the IC50 [3] was 0.577 µM (active) and the IC50 [4] was 0.846 µM (active).

In the case of `Oc1ccc(-c2nnc(S)n2-c2ccc(F)c(Cl)c2)nn1`, the AC50 [5] is reported as 7.36 µM (active).

In the case of `O=C1C2CCCCC2C(=O)N1c1nc(Cc2ccccc2)n[nH]1` (centres undefined), the IC50 [18] is reported as > 100 µM (not active).

With `CCOc1ccc(NC(=O)CN(c2cccc(C(F)(F)F)c2)S(C)(=O)=O)cc1` the EC50 [6] was 9.24 µM (active).

In the case of `O=C(NC(=S)NNS(=O)(=O)c1ccc(Cl)cc1)c1cccnc1`, the IC50 [15] is reported as > 66 µM (inactive) and the IC50 [16] is reported as > 66 µM (inactive).

In the case of `COc1ccccc1/C=C1\SC(NNC(=O)c2cccc(Br)c2)=NC1=O`, the AC50 [19] is reported as 2.09 µM (active).

In the case of `CCC(SC1=NCCS1)C(=O)Nc1ccc(S(N)(=O)=O)cc1` (centres undefined), the IC50 [15] is reported as > 66 µM (inactive) and the IC50 [16] is reported as > 66 µM (inactive).

For `COc1ccc(NC(=O)Cn2nnc(-c3ccccc3NS(=O)(=O)c3ccccc3)n2)cc1`, the AC50 [8] was 0.485 µM (active), the AC50 [9] was 9.81 µM (active) and the AC50 [10] was 16.1 µM (active).

With `COc1ccccc1OCC(O)Cn1c(=N)n(Cc2ccccc2)c2ccccc21` (centres undefined) the AC50 [8] was 4.01 µM (active), the AC50 [9] was 22.1 µM (active) and the AC50 [10] was 10.7 µM (active).

For `O=C(CCc1ccccc1F)N1CCN(c2ccccc2)CC1`, the AC50 [5] was > 100 µM (inactive).

For `CC(C)c1onc(C(=O)Nc2sc3c(c2C#N)CCC3)c1[N+](=O)[O-]`, the EC50 [12] was > 350 µM (not active) and the EC50 [13] was > 350 µM (not active).

For `O=C(Nc1ccc2c(c1)OCO2)N1CCN(c2ncc(C(F)(F)F)cc2Cl)CC1`, the EC50 [6] was 1.99 µM (active).

With `CCCCCCCN1C(Nc2ccccc2)=NC[C@@H]1Cc1ccccc1` the AC50 [8] was 4.82 µM (active), the AC50 [9] was 23 µM (active) and the AC50 [10] was 6.34 µM (active).

With `CN(CC(=O)N1CCN(c2ccccc2)CC1)S(=O)(=O)c1c[nH]cn1` the AC50 [5] was 4.58 µM (active).

With `Cc1cc(C)cc(NC(=O)CSc2nnc(Cc3cccn3C)n2-c2ccc(F)cc2)c1` the EC50 [6] was 2.01 µM (active).

For `O=C(CCNC(=O)c1ccc([N+](=O)[O-])cc1)NCCc1ccccc1`, the IC50 [3] was 10.3 µM (active) and the IC50 [4] was 11.2 µM (active).

With `CCOC(=O)c1[nH]c(C)c(C(=O)OCc2ccccc2F)c1C` the AC50 [19] was 0.633 µM (active).

With `Clc1ccc(OCCCCSc2ncccn2)cc1` the IC50 [15] was > 66 µM (inactive), the IC50 [16] was > 66 µM (inactive) and the IC50 [20] was 21.7 µM (active).

With `CC[n+]1c(/C=C(\C)Nc2ccccc2)sc2ccccc21` the CC50 [2] was 30.1 µM (active).

With `CC(=O)Nc1ccc(SC[C@H](Cc2ccccc2)N2CC[C@@H](C(C)(C)C)CCC2=O)cc1` the IC50 [15] was > 66 µM (inactive) and the IC50 [16] was > 66 µM (inactive).

With `O=C(NNS(=O)(=O)c1ccc(C(=O)NC2CCCC2)cc1)c1ccncc1` the AC50 [5] was 1.67 µM (active).

For `O=C(c1ccccc1)N1CC(COc2ccccc2)OC(c2ccco2)O1` (centres undefined), the EC50 [6] was 12.4 µM (active).

In the case of `Cc1ccc(-c2cc(C(F)(F)F)n3nc(C(=O)Nc4c(C)n(C)n(-c5ccccc5)c4=O)cc3n2)cc1`, the EC50 [12] is reported as > 350 µM (not active) and the EC50 [13] is reported as > 350 µM (not active).

For `Cc1ccc([N+](=O)[O-])cc1NC(=O)CCSc1ccc(Cl)cc1`, the IC50 [3] was 6.23 µM (active) and the IC50 [4] was 7.75 µM (active).

With `CCOC(=O)N1CCc2[nH]c3ccc(C)cc3c2C1` the IC50 [15] was > 66 µM (inactive) and the IC50 [16] was 55.2 µM (inactive).

For `CCOC(=O)CSC1=C(C#N)C(c2sccc2C)CC(=O)N1` (centres undefined), the AC50 [19] was 0.722 µM (active) and the AC50 [21] was 15.8 µM (inconclusive).

With `N#CC1=C(N)Oc2cc(N)ccc2C1C1CC=CCC1` (centres undefined) the AC50 [5] was 5.72 µM (active).

For `CC(=O)OCc1c(C(F)(F)F)nn(C)c1Oc1cccc(C(F)(F)F)c1`, the EC50 [6] was 8.45 µM (active).

In the case of `CCc1cccc(NC(=O)COC(=O)c2cc([N+](=O)[O-])ccc2N2CCOCC2)c1`, the IC50 [3] is reported as 0.29 µM (active) and the IC50 [4] is reported as 0.393 µM (active).

In the case of `Cc1ccc(-c2nnc(COC(=O)c3cc(O)nc4ccccc34)o2)cc1`, the IC50 [3] is reported as 10.4 µM (active) and the IC50 [4] is reported as 9.54 µM (active).

For `O=C(COC(=O)c1cc([N+](=O)[O-])ccc1N1CCOCC1)NCc1ccccc1`, the IC50 [3] was 0.841 µM (active) and the IC50 [4] was 0.683 µM (active).

In the case of `C[C@H](CO)N1C[C@H](C)[C@@H](CN(C)S(=O)(=O)c2ccc(Cl)cc2)OCCCC[C@H](C)Oc2ccc(NS(=O)(=O)c3ccc(Cl)cc3)cc2C1=O`, the AC50 [22] is reported as 4.34 µM (active).

For `CC(/C=C/c1ccccc1F)=N\NC(=O)c1ccccc1`, the IC50 [1] was 21.8 µM (active) and the CC50 [2] was > 40 µM (active).

In the case of `O=c1c2ccccc2nc(COc2ccccc2)n1/N=C/c1ccc(O)cc1O`, the EC50 [23] is reported as 8.68 µM (active), the EC50 [12] is reported as 10.6 µM (active) and the AC50 [7] is reported as 4.63 µM (active). The EC50 [24] was 2.48 µM (active) and the EC50 [13] was 31.9 µM (active).
